Results taken from patent US6596271B2, “Insect control method with genetically engineered biopesticides” (priority 1996, dated 2003).
Marks after values point to notes of the source that are not given here.

Columns and labels:
[1] = system: neonate larvae of H. virescens; assay: Time-response of neonate larvae to NPVs with low concentrations of classical insecticides (droplet feeding, treated vials); format: in vivo, Heliothis virescens; conditions: 2000 PIBs and/or LC10-LC20 (24 h) insecticide
From the text: For example, two of the compounds studied were pyrethroids, […]. In our study we found a subadditive response when low rates of allethrin or cypermethrin were combined with wild-type AcNPV.

[2] = system: neonate larvae of H. virescens; format: in vivo, Heliothis virescens; conditions: at the μg insecticide/vial of Table 4
From the text: As indicated previously, these studies have emphasized the effects of combinations of viral and chemical insecticides on LT50, but the same approaches could be applied to dose as well as time. […] In practice a variety of factors would influence the rates used, including the cost and availability of the biological and chemical pesticide, environmental concerns, level of resistant populations in the field, and other pest management considerations.
Two of the compounds studied were pyrethroids, allethrin (Type I pyrethroid) or cypermethrin (Type II pyrethroid). In our study we found a subadditive response when low rates of allethrin or cypermethrin were combined with wild-type AcNPV.

Compound	Actual Kill Time (LT50, h) [1]	LT10 (h; 95% CL) [1]	LT50 (h; 95% CL) [1]	LT90 (h; 95% CL) [1]	% Mortality at 24 hours [2]
CC1(C)C(C=C(Cl)Cl)C1C(=O)OC(C#N)c1cccc(Oc2ccccc2)c1 (centres unmarked) [Cypermethrin]	124 h	17.1 (7.99-24.8) h	124 (97.5-195) h	902 (436-4190) h	11.8%
CCCSP(=O)(OCC)Oc1ccc(Br)cc1Cl (centres unmarked) [Profenofos]	401 h	8.10 (2.61-17.5) h	401 (260-676) h		16.3%
C=CCC1=C(C)C(OC(=O)C2C(C=C(C)C)C2(C)C)CC1=O (centres unmarked) [Allethrin]	132 h	17.3 (11.5-22.5) h	132 (106-185) h	1000 (552-2680) h	14.0%
Clc1ccc(C(c2ccc(Cl)cc2)C(Cl)(Cl)Cl)cc1 [DDT]	96.7 h	12.6 (3.90-23.8) h	96.7 (73.5-165) h	740 (318-10320) h	18.8%
CNC(=O)ON=C(C)SC [Methomyl]	358 h	4.84 (0.12-13.1) h	358 (182-4070) h	26563 (2870-1.25 × 10^8) h	20.8%
O=S1OCC2C(CO1)C1(Cl)C(Cl)=C(Cl)C2(Cl)C1(Cl)Cl (centres unmarked) [Endosulfan]	73.3 h	10.4 (3.75-17.3) h	73.3 (61.0-90.3) h	514 (296-1580) h	17.5%
